Reference: the supplement of paper PMC8882468

How the values were obtained:
Experiment in all cases: CTG-3D luminescence at 96 h relative to day-0 seeding control (ratio to day 0); higher = more growth / less cytotoxicity; PDxO 3D drug screen, 96 h, CTG-3D normalised to day-0 seeding control.
[1] = tested on: HCI-023 (organoid from a triple-negative breast cancer xenograft)
[2] = tested on: HCI-015 (organoid from a triple-negative breast cancer xenograft)
[3] = tested on: HCI-010 (organoid from a breast cancer xenograft)
[4] = tested on: HCI-002 (organoid from a triple-negative breast cancer xenograft)
[5] = tested on: HCI-011.E2 (organoid from an ER-positive breast cancer xenograft)

Nc1ccn([C@@H]2O[C@H](CO)[C@@H](O)C2(F)F)c(=O)n1 [gemcitabine]
CTG-3D luminescence at 96 h
Details | 12.5 pM | 0.00025 µM | 0.005 µM | 0.1 µM | 1 µM | 10 µM | 100 µM | 625 fM
[1], days in culture: 111 | 1.4 | 1.31 | 1.05 | 0.265 | 0.33 | 0.28 | 0.0585 | 1.43
[1], days in culture: 128 | 1.62 | 1.78 | 1.15 | 0.416 | 0.26 | 0.399 | 0.0826 | 1.9
[2], days in culture: 172 | 2.22 | 1.3 | 1.95 | 0.109 | 0.123 | 0.136 | 0.152 | 2.75
[2], days in culture: 191 | 2.28 | 1.52 | 0.975 | 0.116 | 0.114 | 0.105 | 0.109 | 1.5
[2], days in culture: 218 | 1.86 | 1.48 | 0.887 | 0.138 | 0.105 | 0.107 | 0.0645 | 1.8
[3], days in culture: 52 | 2.22 | 2.17 | 0.657 | 0.455 | 0.327 | 0.234 | 0.123 | 2.32
[3], days in culture: 65 | 1.64 | 1.79 | 0.508 | 0.23 | 0.163 | 0.0878 | 0.0546 | 1.68
[3], days in culture: 103 | 3.39 | 3.81 | 0.867 | 0.503 | 0.479 | 0.241 | 0.123 | 3.42
[4], days in culture: 62 | 2.82 | 2.59 | 2.68 | 0.347 | 0.301 | 0.302 | 0.333 | 2.87
[4], days in culture: 82 | 3.16 | 3.03 | 2.46 | 0.461 | 0.431 | 0.271 | 0.234 | 3.23
[4], days in culture: 91 | 4.24 | 3.02 | 3.08 | 0.544 | 0.381 | 0.346 | 0.287 | 3.87
[4], days in culture: 191 | 2.63 | 2.79 | 2.69 | 0.517 | 0.487 | 0.295 | 0.366 | 2.52
[4], days in culture: 209 | 2.52 | 2.33 | 2.08 | 0.339 | 0.32 | 0.178 | 0.242 | 2.33
[4], days in culture: 227 | 5.51 | 5.33 | 4.57 | 1.05 | 0.78 | 0.657 | 0.547 | 4.99
[5], days in culture: 74 | 2.11 | 2.93 | 2.13 | 2.09 | 2.18 | 2.75 | 2.12 | 2.22

[5]
Details | CTG-3D luminescence at 96 h
12.5 pM | 1.72
0.00025 µM | 1.78
0.005 µM | 1.43
0.1 µM | 1.87
1 µM | 1.54
10 µM | 1.78
100 µM | 1.6
625 fM | 1.9

COc1cccc2c1C(=O)c1c(O)c3c(c(O)c1C2=O)C[C@@](O)(C(=O)CO)C[C@@H]3O[C@H]1C[C@H](N)[C@H](O)[C@H](C)O1 [doxorubicin]
CTG-3D luminescence at 96 h
Details | 12.5 pM | 0.00025 µM | 0.005 µM | 0.1 µM | 1 µM | 10 µM | 100 µM | 625 fM
[1], days in culture: 111 | 1.54 | 1.21 | 1.32 | 1.1 | 0.426 | 0.00296 | 0.00755 | 1.45
[1], days in culture: 128 | 1.92 | 1.73 | 1.62 | 1.33 | 0.321 | 0.00812 | 0.00367 | 2.08
[2], days in culture: 172 | 2.4 | 1.39 | 2.21 | 0.657 | 0.0852 | 0.0438 | 0.0135 | 2.35
[2], days in culture: 191 | 2.38 | 1.36 | 1.43 | 0.382 | 0.0711 | 0.0286 | 0.019 | 1.61
[2], days in culture: 218 | 1.76 | 1.38 | 1.98 | 0.575 | 0.0701 | 0.0582 | 0.0222 | 1.86
[3], days in culture: 52 | 2.23 | 2.37 | 2.52 | 1.93 | 0.497 | 0.271 | 0.0478 | 2.26
[3], days in culture: 65 | 1.7 | 1.65 | 1.8 | 1.3 | 0.324 | 0.288 | -0.000428 | 1.65
[3], days in culture: 103 | 3.64 | 3.76 | 3.69 | 2.37 | 0.535 | 0.804 | 0.0524 | 3.28
[4], days in culture: 62 | 2.87 | 2.62 | 2.59 | 1.61 | 0.668 | 0.0335 | 0.00573 | 2.88
[4], days in culture: 82 | 3.24 | 2.83 | 2.22 | 2.02 | 0.999 | 0.0349 | 0.0154 | 3.02
[4], days in culture: 91 | 4.09 | 3.38 | 3.24 | 2.3 | 1.03 | 0.0844 | 0.0322 | 3.96
[4], days in culture: 191 | 2.74 | 2.53 | 2.51 | 1.69 | 1.02 | 0.0535 | 0.00895 | 2.52
[4], days in culture: 209 | 2.54 | 2.37 | 2.28 | 1.51 | 0.836 | 0.0193 | 0.00843 | 2.44
[4], days in culture: 227 | 4.92 | 5.5 | 4.24 | 3.32 | 1.62 | 0.0266 | -0.0178 | 5.72
[5], days in culture: 74 | 2.69 | 1.99 | 2.17 | 2.07 | 1.65 | 0.129 | 0.0309 | 2.14

[5]
Details | CTG-3D luminescence at 96 h
12.5 pM | 1.59
0.00025 µM | 1.65
0.005 µM | 1.4
0.1 µM | 1.98
1 µM | 1.42
10 µM | 0.122
100 µM | 0.0255
625 fM | 1.6

CC(C)(C(=O)NCC(F)(F)C(F)(F)F)C(=O)N[C@@H]1C(=O)Nc2ccccc2-c2ccccc21
CTG-3D luminescence at 96 h
Details | 12.5 pM | 0.00025 µM | 0.005 µM | 0.1 µM | 1 µM | 10 µM | 100 µM | 625 fM
[1], days in culture: 111 | 1.36 | 1.08 | 0.961 | 0.975 | 0.945 | 1.09 | 0.672 | 1.53
[1], days in culture: 128 | 1.61 | 1.47 | 1.06 | 1.27 | 1.17 | 1.65 | 0.804 | 1.64
[2], days in culture: 172 | 1.79 | 0.907 | 1.41 | 0.52 | 0.649 | 0.927 | 0.996 | 1.66
[2], days in culture: 191 | 2.23 | 0.752 | 0.752 | 0.54 | 0.523 | 0.502 | 0.509 | 1.89
[2], days in culture: 218 | 1.79 | 1.02 | 1.03 | 0.889 | 0.743 | 0.516 | 0.649 | 1.97
[3], days in culture: 52 | 2.08 | 1.91 | 2.38 | 2.13 | 1.86 | 1.9 | 1.24 | 2.2
[3], days in culture: 65 | 1.59 | 1.67 | 1.85 | 1.82 | 1.7 | 1.58 | 0.419 | 1.79
[3], days in culture: 103 | 2.86 | 2.96 | 2.93 | 2.95 | 2.98 | 2.72 | 2.02 | 3.05
[4], days in culture: 62 | 2.81 | 2.3 | 2.94 | 2.74 | 2.12 | 3.01 | 2.47 | 2.63
[4], days in culture: 82 | 3.56 | 2.71 | 2.34 | 2.94 | 2.61 | 3.03 | 1.34 | 3.05
[4], days in culture: 91 | 4.71 | 3.94 | 3.16 | 3.91 | 2.99 | 3.51 | 2.15 | 4.61
[4], days in culture: 191 | 2.82 | 2.44 | 2.45 | 2.13 | 2.48 | 2.26 | 1.81 | 2.66
[4], days in culture: 209 | 2.45 | 2.57 | 2.38 | 2.22 | 2.25 | 1.91 | 1.55 | 2.4
[4], days in culture: 227 | 5.87 | 5.33 | 5.89 | 5.45 | 4.95 | 5.63 | 2.44 | 6.16
[5], days in culture: 74 | 2.34 | 1.83 | 1.89 | 1.8 | 1.57 | 2.5 | 1.76 | 1.73

[5]
Details | CTG-3D luminescence at 96 h
12.5 pM | 1.55
0.00025 µM | 1.61
0.005 µM | 1.49
0.1 µM | 1.97
1 µM | 1.71
10 µM | 2.01
100 µM | 1.76
625 fM | 1.94

O=C(O)C1(C(=O)O)CCC1.[NH2-].[NH2-].[Pt+2] [carboplatin]
CTG-3D luminescence at 96 h
Details | 12.5 pM | 0.00025 µM | 0.005 µM | 0.1 µM | 1 µM | 10 µM | 100 µM | 625 fM
[1], days in culture: 111 | 1.4 | 1.31 | 1.12 | 1.33 | 0.977 | 1.03 | 0.106 | 1.16
[1], days in culture: 128 | 1.28 | 1.47 | 1.23 | 1.6 | 1.16 | 1.35 | 0.0724 | 1.57
[2], days in culture: 172 | 2.56 | 2.15 | 2.48 | 1.49 | 2.05 | 0.715 | 0.354 | 2.54
[2], days in culture: 191 | 2.21 | 1.24 | 1.47 | 1.04 | 1.4 | 0.766 | 0.228 | 1.15
[2], days in culture: 218 | 1.26 | 1.7 | 1.7 | 1.77 | 1.54 | 0.685 | 0.229 | 1.75
[3], days in culture: 52 | 1.92 | 2.23 | 2.25 | 2.47 | 2.55 | 0.598 | 0.0393 | 1.82
[3], days in culture: 65 | 1.63 | 1.56 | 1.74 | 1.77 | 1.63 | 0.511 | 0.0408 | 1.74
[3], days in culture: 103 | 3.69 | 3.41 | 3.55 | 3.27 | 3.23 | 0.639 | 0.13 | 3.07
[4], days in culture: 62 | 3.04 | 2.34 | 2.63 | 2.61 | 2.45 | 2.29 | 0.71 | 2.9
[4], days in culture: 82 | 2.75 | 3.03 | 1.99 | 2.54 | 2.26 | 1.82 | 0.726 | 2.68
[4], days in culture: 91 | 4.49 | 3.72 | 3.53 | 3.87 | 3.9 | 3.69 | 0.992 | 4.08
[4], days in culture: 191 | 2.54 | 2.62 | 2.4 | 2.78 | 2.89 | 1.86 | 0.967 | 2.4
[4], days in culture: 209 | 2.4 | 2.34 | 2.11 | 2.07 | 2.18 | 1.69 | 0.74 | 2.38
[4], days in culture: 227 | 5.92 | 5.72 | 5.38 | 6.29 | 5.74 | 5.68 | 1.18 | 6.2
[5], days in culture: 74 | 2.31 | 2.54 | 2.04 | 1.86 | 2.2 | 2.77 | 2.69 | 1.99

[5]
Details | CTG-3D luminescence at 96 h
12.5 pM | 1.65
0.00025 µM | 1.72
0.005 µM | 1.54
0.1 µM | 2.26
1 µM | 1.71
10 µM | 2.08
100 µM | 1.71
625 fM | 1.69
